Laboratory results taken from patent publication US8163766B2, “Beta-secretase modulators and methods of use” (Amgen Inc., priority 2005, dated 2012).

Test system: Aβ 40 in conditioned media of cells stably expressing Amyloid Precursor Protein (APP)
Assay: BACE Cell-Based Assay (Aβ40 in conditioned medium, sandwich ELISA)
Conditions: 24 hours of incubation with the test compounds, Aβ 40 by sandwich ELISA, read-out: IC50 values in the cell-based assay (inhibition of Aβ 40)
How it was run: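 IC50 derived from Aβ40 reduction in supernatants, quantified by europium time-resolved fluorescence ELISA with pAb40/biotin-6E10 antibodies incubated at 4°C. Cells stably expressing APP received compound for 24 h, ten concentrations from 100 μM or 10 μM top, final DMSO 0.1%.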

| Compound | IC50 |
| --- | --- |
| O=C(N[C@@H](Cc1ccccc1)[C@H](O)CN[C@H]1CC2(CCCC2)Oc2ccc(OC(F)(F)F)cc21)c1ccc(=O)n(C2CCCC2)c1 [Example 135, 1-cyclopentyl-N-((2S,3R)-4-((S)-2,2-spirocyclopentyl-6-(tri-fluoromethoxy)chroman-4-ylamino)-3-hydroxy-1-phenylbutan-2-yl)-6-oxo-1,6-dihydropyridine-3-carb oxamide] | ≤ 5 µM |
| Cc1ccc2c(c1)[C@@H](NC[C@@H](O)[C@H](Cc1ccccc1)NC(=O)c1ccc(=O)n(CC(C)(C)C)c1)CC1(CCCC1)O2 [Example 133, N-((2S,3R)-4-((S)-2,2-spirocyclopentyl-6-methylchroman-4-ylamino)-3-hydroxy-1-phenylbutan-2-yl)-1-neopentyl-6-oxo-1,6-dihydropyridine-3-carboxamide] | ≤ 5 µM |
| Cc1cnc2c(c1)[C@@H](NC[C@@H](O)[C@H](Cc1cc(F)cc(F)c1)NC(=O)C1CCOCC1)CC(C)(C)C2 [Example 503, N-((1S,2R)-1-((3,5-difluorophenyl)methyl)-2-hydroxy-3-(((5S)-3,7,7-trimethyl-5,6,7,8-tetrahydro-5-quinolinyl)amino)propyl)tetrahydro-2H-pyran-4-carboxamide] | ≤ 5 µM |
| O=C(N[C@@H](Cc1ccccc1)[C@H](O)CN[C@H]1CC2(CCC2)Oc2ccc(N3CCOCC3)cc21)[C@@H]1CN(C(=O)C2CCOCC2)CCO1 [Example 526, (2S)-N-((1S,2R)-2-hydroxy-3-(((4S)-6-(4-morpholinyl)-3,4-dihydrospiro[chromene-2,1′-cyclobutan]-4-yl)amino)-1-(phenylmethyl)propyl)-4-(tetrahydro-2H-pyran-4-ylcarbonyl)-2-morpholinecarboxamide] | ≤ 5 µM |
| O=C(N[C@@H](Cc1ccccc1)[C@H](O)CN[C@H]1CC2(CCC2)Oc2ccc(N3CCOCC3)cc21)[C@H]1CC(=O)N(C2CCC2)C1 [Example 524, (3S)-1-cyclobutyl-N-((1S,2R)-2-hydroxy-3-(((4S)-6-(4-morpholinyl)-3,4-dihydrospiro[chromene-2,1′-cyclobutan]-4-yl)amino)-1-(phenylmethyl)propyl)-5-oxo-3-pyrrolidinecarboxamide] | ≤ 5 µM |
| CCc1ccc2c(c1)[C@@H](NC[C@@H](O)[C@H](Cc1ccccc1)NC(=O)[C@H]1CN(C(=O)N3CCCCC3)CCO1)CC(C)(C)O2 [Example 484, (2R)-N-((1S,2R)-3-(((4S)-6-ethyl-2,2-dimethyl-3,4-dihydro-2H-chromen-4-yl)amino)-2-hydroxy-1-(phenylmethyl)propyl)-4-(1-piperidinylcarbonyl)-2-morpholinecarboxamide] | ≤ 5 µM |
| O=C(N[C@@H](Cc1ccc(F)cc1)[C@H](O)CN[C@H]1CC2(CCC2)Oc2cc(F)c(-n3cccn3)cc21)C1CCC1 [Example 473, N-((1S,2R)-1-((4-fluorophenyl)methyl)-3-(((4S)-7-fluoro-6-(1H-pyrazol-1-yl)-3,4-dihydrospiro[chromene-2,1′-cyclobutan]-4-yl)amino)-2-hydroxypropyl)cyclobutanecarboxamide] | ≤ 5 µM |
| Cc1cccc(C(=O)N2CCO[C@H](C(=O)N[C@@H](Cc3cccc(C#N)c3)[C@H](O)CN[C@H]3CC(C)(C)Cc4ncc(C)cc43)C2)c1 [Example 496, (2S)-N-((1S,2R)-1-((3-cyanophenyl)methyl)-2-hydroxy-3-(((5S)-3,7,7-trimethyl-5,6,7,8-tetrahydro-5-quinolinyl)amino)propyl)-4-((3-methylphenyl)carbonyl)-2-morpholinecarboxamide] | ≤ 5 µM |
| CC(C)c1ccc2c(c1)[C@@H](NC[C@@H](O)[C@H](Cc1ccccc1)NC(=O)c1ccc(=O)n(C3CCCC3)c1)CC1(CCCC1)O2 [Example 138, 1-cyclopentyl-N-((2S,3R)-4-((S)-2,2-spirocyclopentyl-6-iso-propylchroman-4-ylamino)-3-hydroxy-1-phenylbutan-2-yl)-6-oxo-1,6-dihydropyridine-3-carb oxamide] | ≤ 5 µM |

More lines, now with the values ahead:

| IC50 | Compound |
| --- | --- |
| ≤ 5 µM | O=C(N[C@@H](Cc1ccccc1)[C@H](O)CN[C@H]1CC2(CCCC2)Oc2ccc(F)cc21)c1cc(N2CCCC2=O)c(=O)n(C2CCCC2)c1 [Example 110] |
| ≤ 5 µM | CCc1ccc2c(c1)[C@@H](NC[C@@H](O)[C@H](Cc1ccccc1)NC(=O)c1cc(N3CCCC3=O)c(=O)n(C3CCCC3)c1)CC1(CCCC1C)O2 (stereo partly drawn) [Example 140, 1-cyclopentyl-N-((2S,3R)-4-((S)-6-ethyl-2,2-(-methyl)-spirocyclopentylchroman-4-ylamino)-3-hydroxy-1-phenylbutan-2-yl)-6-oxo-5-(2-oxopyrrolidin-1-yl)-1,6-dihydropyridine-3-carboxamide] |
| ≤ 5 µM | CCc1ccc2c(c1)[C@@H](NC[C@@H](O)[C@H](Cc1ccccc1)NC(=O)c1cc(N3CCCC3=O)c(=O)n(C3CCCC3)c1)CC1(CCCCCC1)O2 [Example 130, 1-cyclopentyl-N-((2S,3R)-4-((S)-6-ethyl-2,2-spirocycloheptyl-chroman-4-ylamino)-3-hydroxy-1-phenylbutan-2-yl)-6-oxo-5-(2-oxopyrrolidin-1-yl)-1,6-dihydropyridine-3-carboxamide] |
| ≤ 5 µM | CCc1ccc2c(c1)C(NC[C@@H](O)[C@H](Cc1ccccc1)NC(=O)c1cc(-c3ccccn3)c(=O)n(C3CCCC3)c1)CC1(CCCC1)O2 (stereo partly shown) [Example 5] |
